According to patent publication US12286442B2, “Methods and materials for increasing transcription factor eb polypeptide levels” (University of Pittsburgh—Of the Commonwealth System of …, priority 2019, dated 2025):

Key:
TFEB = test: High content screen measuring TFEB nuclear accumulation (TFEB nuclear/cytosol ratio) in BEAS-2B cells stably expressing TFEB-EGFP; type: cell-based, human; conditions: 18 hours incubation
How it was run: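 Readout: lowest compound concentration giving a 25% rise in nuclear/cytosol TFEB-GFP ratio, from DAPI-masked nuclear and mask-expanded cytosolic signals. Cells (BEAS-2B, TFEB-EGFP stable, ~2300–2500/well) rested 8 hours, then treated 18 hours with compound serial dilutions in 2% FBS medium before PFA fixation and DAPI staining.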

BEAS-2B cells = test: Toxicity: compound concentration needed to induce greater than 50 percent of cell loss; type: cell-based, human; conditions: 18 hours incubation
How it was run: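 Reported value is the concentration giving greater than 50 percent cell loss, grouped into bins (≥25 μM; between 1 and 25 μM; ≤1 μM as "+++"). Measured by high-content imaging of DAPI-stained BEAS-2B TFEB-EGFP cells fixed after 18 h compound exposure.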

SMILES | efficacy (minimal compound concentration needed to increase TFEB nuclear/cytosol ratio by 25%) (TFEB) | toxicity (compound concentration needed to induce greater than 50 percent of cell loss) (BEAS-2B cells)
OC1CCN(c2nc(-c3ccncc3)nc3ccccc23)CC1 [Compound 177] | + (“+” equals >25 μM) | + (cell loss of greater than 50 percent at a concentration that equals or is greater than 25 μM was represented as)
c1ccc(Nc2nc(-c3ccncc3)nc3ccccc23)cc1 [Compound 179] | ++ (“++” equals between ≤25 μM and >1 μM) | + (cell loss of greater than 50 percent at a concentration that equals or is greater than 25 μM was represented as)
Fc1ccccc1Nc1nc(-c2ccncc2)nc2ccccc12 [Compound 180] | + (“+” equals >25 μM) | + (cell loss of greater than 50 percent at a concentration that equals or is greater than 25 μM was represented as)
Fc1ccc(Nc2nc(-c3ccncc3)nc3ccccc23)cc1 [Compound 181] | +++ (“+++” equals ≤1 μM) | + (cell loss of greater than 50 percent at a concentration that equals or is greater than 25 μM was represented as)
Fc1cc(F)cc(Nc2nc(-c3ccncc3)nc3ccccc23)c1 [Compound 182] | + (“+” equals >25 μM) | + (cell loss of greater than 50 percent at a concentration that equals or is greater than 25 μM was represented as)
Fc1ccc(Nc2nc(-c3ccncc3)nc3ccccc23)cc1F [Compound 183] | ++ (“++” equals between ≤25 μM and >1 μM) | + (cell loss of greater than 50 percent at a concentration that equals or is greater than 25 μM was represented as)
Cc1cc(F)cc(Nc2nc(-c3ccncc3)nc3ccccc23)c1 [Compound 184] | ++ (“++” equals between ≤25 μM and >1 μM) | + (cell loss of greater than 50 percent at a concentration that equals or is greater than 25 μM was represented as)
Cc1cccc(Nc2nc(-c3ccncc3)nc3ccccc23)c1 [Compound 185] | +++ (“+++” equals ≤1 μM) | + (cell loss of greater than 50 percent at a concentration that equals or is greater than 25 μM was represented as)
N#Cc1cccc(Nc2nc(-c3ccncc3)nc3ccccc23)c1 [Compound 186] | +++ (“+++” equals ≤1 μM) | + (cell loss of greater than 50 percent at a concentration that equals or is greater than 25 μM was represented as)
Clc1cccc(Nc2nc(-c3ccncc3)nc3ccccc23)c1 [Compound 187] | +++ (“+++” equals ≤1 μM) | + (cell loss of greater than 50 percent at a concentration that equals or is greater than 25 μM was represented as)
Fc1cccc(CNc2nc(-c3ccncc3)nc3ccccc23)c1 [Compound 188] | + (“+” equals >25 μM) | + (cell loss of greater than 50 percent at a concentration that equals or is greater than 25 μM was represented as)
FC(F)(F)c1cccc(Nc2nc(-c3ccncc3)nc3ccccc23)c1 [Compound 189] | ++ (“++” equals between ≤25 μM and >1 μM) | + (cell loss of greater than 50 percent at a concentration that equals or is greater than 25 μM was represented as)
COc1cccc(Nc2nc(-c3ccncc3)nc3ccccc23)c1 [Compound 190] | ++ (“++” equals between ≤25 μM and >1 μM) | + (cell loss of greater than 50 percent at a concentration that equals or is greater than 25 μM was represented as)
c1ccc2c(Nc3ccc4[nH]nnc4c3)nc(-c3ccncc3)nc2c1 [Compound 191] | +++ (“+++” equals ≤1 μM) | + (cell loss of greater than 50 percent at a concentration that equals or is greater than 25 μM was represented as)
Cc1nc2ccc(Nc3nc(-c4ccncc4)nc4ccccc34)cc2s1 [Compound 192] | +++ (“+++” equals ≤1 μM) | + (cell loss of greater than 50 percent at a concentration that equals or is greater than 25 μM was represented as)
c1ccc2c(Nc3ccc4[nH]cnc4c3)nc(-c3ccncc3)nc2c1 [Compound 193] | ++ (“++” equals between ≤25 μM and >1 μM) | ++ (cell loss of greater than 50 percent at a concentration less than 25 μM and greater than 1 μM was represented as)
Fc1cccc(Nc2nc(-c3ccncc3)nc3ccncc23)c1 [Compound 194] | +++ (“+++” equals ≤1 μM) | + (cell loss of greater than 50 percent at a concentration that equals or is greater than 25 μM was represented as)
Cc1ccc(-c2nc(Nc3cc(F)ccc3C)c3ccccc3n2)cc1 [Compound 195] | + (“+” equals >25 μM) | + (cell loss of greater than 50 percent at a concentration that equals or is greater than 25 μM was represented as)
Fc1ccc(Nc2nc(-c3cccnc3)nc3ccccc23)cc1F [Compound 196] | + (“+” equals >25 μM) | + (cell loss of greater than 50 percent at a concentration that equals or is greater than 25 μM was represented as)
Cc1ccc(Nc2nc(-c3ccc(C)cc3)nc3ccccc23)cc1 [Compound 197] | + (“+” equals >25 μM) | + (cell loss of greater than 50 percent at a concentration that equals or is greater than 25 μM was represented as)
COc1cc(-c2nc(Nc3cc(F)ccc3C)c3ccccc3n2)cc(OC)c1OC [Compound 198] | + (“+” equals >25 μM) | + (cell loss of greater than 50 percent at a concentration that equals or is greater than 25 μM was represented as)
Cc1ccc(Nc2nc(-c3ccccc3Cl)nc3ccccc23)c(C)c1 [Compound 199] | + (“+” equals >25 μM) | + (cell loss of greater than 50 percent at a concentration that equals or is greater than 25 μM was represented as)
Cc1ccc(Nc2nc(-c3ccc([N+](=O)[O-])cc3)nc3ccccc23)c(C)c1 [Compound 200] | ++ (“++” equals between ≤25 μM and >1 μM) | + (cell loss of greater than 50 percent at a concentration that equals or is greater than 25 μM was represented as)
Cc1ccc(-c2nc(Nc3ccccc3F)c3ccccc3n2)cc1 [Compound 201] | + (“+” equals >25 μM) | + (cell loss of greater than 50 percent at a concentration that equals or is greater than 25 μM was represented as)
Cc1ccc(-c2nc(Nc3ccc(C)c(F)c3)c3ccccc3n2)cc1 [Compound 202] | + (“+” equals >25 μM) | + (cell loss of greater than 50 percent at a concentration that equals or is greater than 25 μM was represented as)
COc1cc(-n2c(=O)c3ccccc3n(CC(=O)Nc3ccc(C(C)C)cc3)c2=O)cc(OC)c1OC [Compound 214] | + (“+” equals >25 μM) | + (cell loss of greater than 50 percent at a concentration that equals or is greater than 25 μM was represented as)
COc1ccc(-n2c(=O)c3ccc(C(=O)NCCc4ccccc4)cc3n(Cc3cccc(F)c3)c2=O)cc1 [Compound 215] | ++ (“++” equals between ≤25 μM and >1 μM) | ++ (cell loss of greater than 50 percent at a concentration less than 25 μM and greater than 1 μM was represented as)
